# Assay results reported in patent US20040002537A1, “Use of statins in the treatment of autoimmune disease” (priority 2002, published 2004).
# How the values were obtained:
# STAT6 [1] = test: Western blot for STAT6 phosphorylation in draining lymph node cells of treated mice; type: in vivo, mouse; details: SJL/J mice, 1 mg/kg and 10 mg/kg oral, 10 days after EAE induction, FIG. 5 lanes 2 and 3
# Protocol: (§1) Western Blot Analysis for STAT-6 and STAT-4 Phosphorylation. Western Blot analysis was performed as described in Garren et al. (2001) Immunity 15:15, with minor modifications. Lymph nodes from control and atorvastatin-treated mice were homogenized in T-PER protein extraction buffer (Pierce,), with 20 μg/ml aprotinin, 20 μg/ml leupeptin, 1.6 mM Pefablock SC (Roche), 10 mM NaF, 1 mM Na3VO4 and 1 mM Na4P2O7 (Sigma, St. Louis, Mo.). All procedures were handled on ice. As a positive control, lymph node cells from naive mice were isolated and cultured for one hour with mouse recombinant IL-4 (10 ng/ml) or INF-γ (100 units/ml), for STAT6 and STAT4 expression respectively. Protein concentrations were determined by BCA protein assay (Pierce). Lysate was added to 3×SDS loading buffer (Cell Signaling Technology) with 40 mM DTT. Products were separated by electrophoresis on a 4-15% SDS-PAGE gradient gel (BioRad). Pre-stained markers (Invitrogen) were used to determine MW. Gels were blotted to PVDF membranes at 100 V in 25 mM Tris, 192 mM glycine and 20% (v/v) methanol, then blocked 1 hr at RT with Tris-buffered saline (TBS) containing 0.1% Tween-20 and 5% nonfat dry milk. […]
# [2] = test system: MBP Ac1-11-induced EAE in MBP Ac1-11 Tg mice; test: MBP Ac1-11-induced acute EAE, oral atorvastatin; type: in vivo, mouse; details: FIG. 1E
# [3] = test system: MOG p35-55-induced EAE in C57BL/6 mice; test: MOG p35-55-induced chronic EAE, oral atorvastatin; type: in vivo, mouse; details: daily oral
# [4] = test system: PLP p139-151-stimulated spleen cells
# Protocol: Ag Specific Ex-vivo T Cell Proliferation Assay. […] Lymph node cells (LNCs) or splenocytes were cultured in vitro for specific proliferative response to the specific encephalogenic peptide (PLP 139-151, MOG 35-55 or MBP Ac1-11, respectively). LNCs were prepared in 96-well microtiter plates in a volume of 0.2 ml/well at a concentration of 5×10^6 cells/ml. The culture medium consisted of enriched RPMI (RPMI 1640 supplemented with L-glutamine [2 mM], sodium pyruvate [1 mM], nonessential amino acids [0.1 mM], penicillin [100 U/ml], streptomycin [0.1 mg/ml], 2-ME [5×10^−5 M]) supplemented with 1% autologous fresh normal mouse serum with the addition of different peptides concentrations. Cultures were incubated in 37° C. in humidified air containing 5% CO2. Cultures taken from SJL/J or C57BL/6 mice were incubated for 72h whereas cultures from MBPAc-1-11 Tg mice were incubated for 48 hours and then were pulsed for 18 hr with 1 μCi/well of [^3H] thymidine. The cells were then harvested and counted in a β counter.
# [5] = test system: Th1/Th2 cytokines (IL-2, IFN-γ, IL-4, IL-10); test: Cytokine profile determination by ELISA, ex vivo lymph node and spleen cells; type: in vivo, mouse
# Protocol: Cytokine Profile Determination. Lymph node cells and spleen cells from EAE donors were stimulated in vitro (2.5×10^6 cells/ml) in 24-well plates with or without the encephalogenic peptide or with […] as positive control. Cell culture supernatants were collected at different time points for measurements of cytokine levels: 48 hours for IL-2 , 72 hours for IFN-γ and TNF α, and 120 hours for […]. Cytokine levels were determined using specific ELISA kits for the corresponding cytokines according to the manufacturer's protocols (PharMingen, San Diego, Calif., USA).
# MHC II = details: through the effect on the CIITA p IV gene; cited from earlier work
# [6] = test system: PLP p139-151-induced EAE in SJL/J mice; test: PLP p139-151-induced relapsing EAE, oral atorvastatin; type: in vivo, mouse
# microglia and astrocytes = details: cited from earlier work
# STAT6 [7] = test: Western blot for STAT6 phosphorylation, naive lymph node cells cultured with IL-4 (positive control); type: cell-based, mouse; details: 10 ng/ml for one hour, FIG. 5 lane 4
# Protocol: as §1
molecule,measurement,setting,value
CC(C)c1c(C(=O)Nc2ccccc2)c(-c2ccccc2)c(-c2ccc(F)cc2)n1CC[C@@H](O)C[C@@H](O)CC(=O)O [atorvastatin],Phosphorylated STAT6 in lymph nodes (Western blot),STAT6 [1],phosphorylated STAT6 is seen
same,Acute EAE progression,[2],successfully prevented acute EAE progression
same,"EAE clinical score, treatment starting at EAE onset","[3]; C57Bl/6 female mice, 1 mg/kg or 10 mg/kg, FIG. 1A",suppressed EAE induction
same,"EAE clinical score, treatment after onset","[3]; C57Bl/6 mice, FIG. 1B",ameliorated EAE
same,PLP p139-151-specific proliferative responses (3H-thymidine incorporation),"[4]; cells from SJL/J mice treated with 1 or 10 mg/kg, FIG. 4A",suppressed in a dose-related fashion
same,Cell death in the in vitro cultures,[4]; lymphocytes from treated mice,not observed increased cell death
same,Th2 bias (proliferation and cytokines) in other strains,[5]; C57BL/6 and MBP Ac1-11-specific transgenic mice,almost identical Th2 bias
same,Secretion of IL-10,"[5]; SJL/J mice, 10 mg/kg, ELISA, FIG. 4E",observed at the higher treatment dose
same,Production of IL-2,"[5]; SJL/J mice, 1 and 10 mg/kg, ELISA, FIG. 4B","reduced, although to a much greater extent in mice treated with 10 mg/kg"
same,Secretion of IFN-γ,"[5]; SJL/J mice, both treatment doses (1 and 10 mg/kg), ELISA, FIG. 4C",dramatic reduction
same,IL-4 secretion,"[5]; SJL/J mice, both treatment doses (1 and 10 mg/kg), ELISA, FIG. 4D",induced at both treatment doses
same,Expression of MHC II,MHC II,could inhibit the expression of MHC II
same,"Ongoing relapsing EAE, treatment begun after recovery from acute EAE",[6]; FIG. 1D,reversal of ongoing relapsing EAE
same,Prevention of relapsing EAE,"[6]; treatment at onset, FIG. 1C",effective in prevention of relapsing EAE
CC[C@H](C)C(=O)O[C@H]1C[C@@H](C)C=C2C=C[C@H](C)[C@H](CC[C@@H]3C[C@@H](O)CC(=O)O3)[C@H]21 [lovastatin],"Production of iNOS and proinflammatory cytokines (TNFα, IL-1β and IL-6)",microglia and astrocytes,inhibited production
"mouse recombinant IL-4: mouse recombinant IL-4 (10 ng/ml), positive control for STAT6 phosphorylation (protein, UniProt P07750 21-140, looked up) Interleukin-4: HIHGCDKNHLREIIGILNEVTGEGTPCTEMDVPNVLTATKNTTESELVCRASKVLRIFYLKHGKTPCLKKNSSVLMELQRLFRAFRCLDSSISCTMNESKSTSLKDFLESLKSIMQMDYS",Phosphorylated STAT6 in naive lymph node cells (Western blot),STAT6 [7],phosphorylated STAT6 is seen
